# Test results: ChEMBL document CHEMBL3774360, “Potent multitarget FAAH-COX inhibitors: Design and structure-activity relationship studies” (Eur J Med Chem, 2016)
# Active and inactive are the calls of the source. The rule behind the calls is not given here.
# Legend:
# [1] = molecular target: cGMP-specific 3',5'-cyclic phosphodiesterase (Homo sapiens) (UniProt O76074); test: Binding affinity to human PDE5 at 10 uM
# Homo sapiens [2] = species on record: Homo sapiens; test: Binding affinity to human muscarinic receptor at 10 uM by radioligand binding assay
# [3] = molecular target: Sodium-dependent dopamine transporter (Homo sapiens) (UniProt Q01959); test: Binding affinity to human dopamine transporter at 10 uM by radioligand binding assay
# Homo sapiens [4] = species on record: Homo sapiens; test: Binding affinity to GABA receptor (unknown origin) at 10 uM by radioligand binding assay
# [5] = molecular target: Corticotropin-releasing factor receptor 1 (Homo sapiens) (UniProt P34998); test: Binding affinity to human CRF1 receptor at 10 uM by radioligand binding assay
# Mus musculus = test: In-vivo inhibition of COX in mouse plasma assessed as decrease in 6-keto-PGF1-alpha level at 1 mg/kg, iv after 1 hr by LC-MS/MS analysis; format: functional, organism-based
# [6] = molecular target: NAD-dependent protein deacetylase sirtuin-1 (Homo sapiens) (UniProt Q96EB6); test: Inhibition of human sirtuin 1 at 10 uM; set-up: scale not given: the % may be the effect or the level left
# [7] = molecular target: Transmembrane domain-containing protein TMIGD3 (Homo sapiens) (UniProt P0DMS9); test: Binding affinity to human adenosine A3 receptor at 10 uM by radioligand binding assay
# [8] = molecular target: Acetylcholinesterase (Homo sapiens) (UniProt P22303); test: Binding affinity to human acetylcholinesterase at 10 uM
# Homo sapiens [9] = species on record: Homo sapiens; test: Binding affinity to human sigma receptor at 10 uM by radioligand binding assay
# [10] = molecular target: D(4) dopamine receptor (Homo sapiens) (UniProt P21917); test: Binding affinity to human dopamine D4.4 receptor at 10 uM by radioligand binding assay
# [11] = molecular target: Histamine H3 receptor (Homo sapiens) (UniProt Q9Y5N1); test: Binding affinity to human histamine H3 receptor at 10 uM by radioligand binding assay
# Homo sapiens [12] = species on record: Homo sapiens; test: Binding affinity to GABA-gated chloride channel (unknown origin) at 10 uM by radioligand binding assay
# [13] = molecular target: B1 bradykinin receptor (Homo sapiens) (UniProt P46663); test: Binding affinity to human bradykinin 1 receptor at 10 uM by radioligand binding assay
# [14] = molecular target: Histamine H1 receptor (Homo sapiens) (UniProt P35367); test: Binding affinity to human histamine H1 receptor at 10 uM by radioligand binding assay
# [15] = molecular target: Histamine H2 receptor (Homo sapiens) (UniProt P25021); test: Binding affinity to human histamine H2 receptor at 10 uM by radioligand binding assay
# [16] = molecular target: Polyunsaturated fatty acid 5-lipoxygenase (Homo sapiens) (UniProt P09917); test: Binding affinity to human 5-lipoxygenase at 10 uM
# Homo sapiens [17] = species on record: Homo sapiens; test: Binding affinity to neuropeptide Y receptor (unknown origin) at 10 uM by radioligand binding assay
# [18] = molecular target: Proteinase-activated receptor 2 (Homo sapiens) (UniProt P55085); test: Binding affinity to human PAR2 receptor at 10 uM by radioligand binding assay
# [19] = molecular target: Calcitonin gene-related peptide 1 (Homo sapiens) (UniProt P06881); test: Binding affinity to CGRP1 (unknown origin) at 10 uM
# [20] = molecular target: M-phase inducer phosphatase 1 (Homo sapiens) (UniProt P30304); test: Binding affinity to CDC25A (unknown origin) at 10 uM
# [21] = molecular target: Histone deacetylase 3 (Homo sapiens) (UniProt O15379); test: Binding affinity to human HDAC3 at 10 uM
# Homo sapiens [22] = species on record: Homo sapiens; test: Binding affinity to P2Y receptor (unknown origin) at 10 uM by radioligand binding assay
# [23] = molecular target: Prostacyclin receptor (Homo sapiens) (UniProt P43119); test: Binding affinity to human IP receptor at 10 uM by radioligand binding assay
# [24] = molecular target: Gastrin/cholecystokinin type B receptor (Homo sapiens) (UniProt P32239); test: Binding affinity to human cholecystokinin receptor type B at 10 uM by radioligand binding assay
# [25] = molecular target: Adrenergic receptor alpha-1 (Homo sapiens) (UniProt P35348+P25100+P35368); test: Binding affinity to human alpha-1 adrenergic receptor (unknown origin) at 10 uM by radioligand binding assay
# [26] = molecular target: cGMP-dependent 3',5'-cyclic phosphodiesterase (Homo sapiens) (UniProt O00408); test: Binding affinity to human PDE2A1 at 10 uM
# [27] = tested on: Voltage-gated potassium channel; test: Binding affinity to voltage-gated potassium channel (unknown origin) at 10 uM by radioligand binding assay; format: protein assay; details: human
# [28] = molecular target: Centromere-associated protein E (Homo sapiens) (UniProt Q02224); test: Binding affinity to human CENP-E at 10 uM
# [29] = molecular target: Endothelin-1 receptor (Homo sapiens) (UniProt P25101); test: Binding affinity to human ETA receptor at 10 uM by radioligand binding assay
# [30] = molecular target: D(2) dopamine receptor (Homo sapiens) (UniProt P14416); test: Binding affinity to human dopamine D2S receptor at 10 uM by radioligand binding assay
# Homo sapiens [31] = species on record: Homo sapiens; test: Binding affinity to L-type calcium channel verapamil binding site (unknown origin) at 10 uM by radioligand binding assay
# [32] = molecular target: Type-1 angiotensin II receptor (Homo sapiens) (UniProt P30556); test: Binding affinity to human angiotensin receptor 1 at 10 uM by radioligand binding assay
# [33] = molecular target: Amine oxidase [flavin-containing] A (Homo sapiens, UniProt P21397); test: Binding affinity to human MAO-A at 10 uM
# [34] = molecular target: Cysteinyl leukotriene receptor 1 (Homo sapiens) (UniProt Q9Y271); test: Binding affinity to human cysteinyl leukotriene receptor 1 at 10 uM by radioligand binding assay
# [35] = molecular target: Nociceptin receptor (Homo sapiens) (UniProt P41146); test: Binding affinity to human NOP receptor at 10 uM by radioligand binding assay
# Homo sapiens [36] = species on record: Homo sapiens; test: Binding affinity to 5-HT1 receptor (unknown origin) at 10 uM
# [37] = molecular target: Opioid receptors; mu/kappa/delta (Homo sapiens) (UniProt P41145+P41143+P35372); test: Binding affinity to opioid receptor (unknown origin) at 10 uM by radioligand binding assay
# [38] = molecular target: Melanocortin receptor 4 (Homo sapiens) (UniProt P32245); test: Binding affinity to human melanocortin-4 receptor at 10 uM by radioligand binding assay
# [39] = molecular target: Tyrosine 3-monooxygenase (Homo sapiens) (UniProt P07101); test: Binding affinity to tyrosine hydroxylase (unknown origin) at 10 uM
# Homo sapiens [40] = species on record: Homo sapiens; test: Binding affinity to I2 imidazoline binding site (unknown origin) at 10 uM by radioligand binding assay
# [41] = molecular target: Adenosine receptor A2a (Homo sapiens) (UniProt P29274); test: Binding affinity to human adenosine A2A receptor at 10 uM by radioligand binding assay
# Homo sapiens [42] = species on record: Homo sapiens; test: Binding affinity to kainate receptor (unknown origin) at 10 uM by radioligand binding assay
# [43] = molecular target: Thromboxane A2 receptor (Homo sapiens) (UniProt P21731); test: Agonist activity against human TP receptor at 10 uM
# Homo sapiens [44] = species on record: Homo sapiens; test: Binding affinity to P2X receptor (unknown origin) at 10 uM by radioligand binding assay
# Sequence of Type-1 angiotensin II receptor (Homo sapiens) (P30556 whole entry): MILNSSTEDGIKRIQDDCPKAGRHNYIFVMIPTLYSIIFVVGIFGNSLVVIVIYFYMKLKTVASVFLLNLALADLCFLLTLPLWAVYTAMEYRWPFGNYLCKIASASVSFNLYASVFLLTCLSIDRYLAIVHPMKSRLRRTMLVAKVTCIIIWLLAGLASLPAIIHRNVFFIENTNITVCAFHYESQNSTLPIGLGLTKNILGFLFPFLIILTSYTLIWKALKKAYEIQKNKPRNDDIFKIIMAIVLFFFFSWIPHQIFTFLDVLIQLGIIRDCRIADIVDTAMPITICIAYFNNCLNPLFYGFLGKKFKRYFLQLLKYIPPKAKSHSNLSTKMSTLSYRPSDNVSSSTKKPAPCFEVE
# Sequence of D(4) dopamine receptor (Homo sapiens) (P21917 whole entry): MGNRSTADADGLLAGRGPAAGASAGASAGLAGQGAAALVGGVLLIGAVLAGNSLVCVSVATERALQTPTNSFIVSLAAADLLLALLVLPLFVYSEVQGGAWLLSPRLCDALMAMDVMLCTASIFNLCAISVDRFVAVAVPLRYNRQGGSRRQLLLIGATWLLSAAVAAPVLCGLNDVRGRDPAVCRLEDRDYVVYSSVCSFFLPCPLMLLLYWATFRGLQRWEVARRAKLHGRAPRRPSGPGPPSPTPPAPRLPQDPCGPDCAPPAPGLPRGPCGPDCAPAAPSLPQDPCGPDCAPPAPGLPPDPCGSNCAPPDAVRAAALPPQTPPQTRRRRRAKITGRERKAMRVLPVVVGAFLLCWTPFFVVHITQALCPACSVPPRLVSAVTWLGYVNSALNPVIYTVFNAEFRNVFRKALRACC
# Sequence of Endothelin-1 receptor (Homo sapiens) (P25101 whole entry): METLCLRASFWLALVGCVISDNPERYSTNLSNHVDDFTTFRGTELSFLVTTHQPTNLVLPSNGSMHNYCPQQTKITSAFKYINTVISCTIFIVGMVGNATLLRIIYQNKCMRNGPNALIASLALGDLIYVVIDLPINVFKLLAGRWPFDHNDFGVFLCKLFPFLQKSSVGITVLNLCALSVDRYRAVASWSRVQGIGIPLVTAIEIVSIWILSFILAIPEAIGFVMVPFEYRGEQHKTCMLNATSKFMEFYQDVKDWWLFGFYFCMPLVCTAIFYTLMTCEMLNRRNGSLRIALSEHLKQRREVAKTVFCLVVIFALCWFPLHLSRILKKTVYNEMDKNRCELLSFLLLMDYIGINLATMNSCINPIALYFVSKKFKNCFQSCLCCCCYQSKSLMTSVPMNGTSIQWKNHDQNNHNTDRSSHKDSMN
# Sequence of Adenosine receptor A2a (Homo sapiens) (P29274 whole entry): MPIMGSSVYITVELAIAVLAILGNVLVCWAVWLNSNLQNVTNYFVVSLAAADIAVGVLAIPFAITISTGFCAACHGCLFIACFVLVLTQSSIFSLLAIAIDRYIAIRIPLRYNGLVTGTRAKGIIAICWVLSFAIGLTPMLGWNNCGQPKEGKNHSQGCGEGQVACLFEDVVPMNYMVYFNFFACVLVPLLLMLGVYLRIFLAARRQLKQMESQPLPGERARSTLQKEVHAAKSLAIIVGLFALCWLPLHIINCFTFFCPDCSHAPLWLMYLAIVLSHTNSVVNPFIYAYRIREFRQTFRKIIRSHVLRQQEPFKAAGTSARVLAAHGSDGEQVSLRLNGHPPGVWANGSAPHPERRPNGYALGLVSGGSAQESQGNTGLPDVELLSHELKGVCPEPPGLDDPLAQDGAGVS
# Sequence of Corticotropin-releasing factor receptor 1 (Homo sapiens) (P34998 whole entry): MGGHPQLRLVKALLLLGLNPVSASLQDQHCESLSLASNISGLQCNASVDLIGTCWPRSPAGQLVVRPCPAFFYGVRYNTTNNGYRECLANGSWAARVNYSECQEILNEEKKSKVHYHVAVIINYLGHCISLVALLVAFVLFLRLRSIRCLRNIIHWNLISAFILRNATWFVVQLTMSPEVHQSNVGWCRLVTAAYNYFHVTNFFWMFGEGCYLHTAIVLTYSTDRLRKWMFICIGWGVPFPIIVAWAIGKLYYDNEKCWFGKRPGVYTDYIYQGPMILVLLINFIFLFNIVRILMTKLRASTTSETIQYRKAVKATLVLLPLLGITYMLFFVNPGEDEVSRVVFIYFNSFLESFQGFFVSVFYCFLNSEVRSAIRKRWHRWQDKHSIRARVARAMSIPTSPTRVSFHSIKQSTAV
# Sequence of Opioid receptors; mu/kappa/delta (Homo sapiens) (P35372 whole entry, looked up): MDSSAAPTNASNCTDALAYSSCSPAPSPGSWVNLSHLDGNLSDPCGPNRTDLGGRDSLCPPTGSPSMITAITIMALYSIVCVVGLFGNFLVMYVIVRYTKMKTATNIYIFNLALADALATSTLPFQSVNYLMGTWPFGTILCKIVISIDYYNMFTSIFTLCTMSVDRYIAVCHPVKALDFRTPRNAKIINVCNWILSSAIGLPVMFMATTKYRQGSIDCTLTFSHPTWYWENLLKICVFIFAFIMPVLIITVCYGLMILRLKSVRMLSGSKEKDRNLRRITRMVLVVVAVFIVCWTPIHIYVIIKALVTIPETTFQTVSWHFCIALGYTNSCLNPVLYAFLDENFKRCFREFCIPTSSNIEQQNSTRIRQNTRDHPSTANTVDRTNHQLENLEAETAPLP
# Sequence of Opioid receptors; mu/kappa/delta (Homo sapiens) (P41143 whole entry, looked up): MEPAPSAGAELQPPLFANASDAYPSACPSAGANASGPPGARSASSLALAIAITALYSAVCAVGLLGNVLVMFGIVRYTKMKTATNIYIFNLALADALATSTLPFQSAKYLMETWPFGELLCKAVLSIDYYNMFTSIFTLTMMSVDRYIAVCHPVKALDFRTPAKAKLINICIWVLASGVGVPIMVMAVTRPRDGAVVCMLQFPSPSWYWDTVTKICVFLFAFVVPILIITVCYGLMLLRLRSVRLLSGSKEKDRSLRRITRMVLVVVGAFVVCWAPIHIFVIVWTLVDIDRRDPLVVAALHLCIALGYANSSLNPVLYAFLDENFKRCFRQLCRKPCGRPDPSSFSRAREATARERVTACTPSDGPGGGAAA
# Sequence of Opioid receptors; mu/kappa/delta (Homo sapiens) (P41145 whole entry, looked up): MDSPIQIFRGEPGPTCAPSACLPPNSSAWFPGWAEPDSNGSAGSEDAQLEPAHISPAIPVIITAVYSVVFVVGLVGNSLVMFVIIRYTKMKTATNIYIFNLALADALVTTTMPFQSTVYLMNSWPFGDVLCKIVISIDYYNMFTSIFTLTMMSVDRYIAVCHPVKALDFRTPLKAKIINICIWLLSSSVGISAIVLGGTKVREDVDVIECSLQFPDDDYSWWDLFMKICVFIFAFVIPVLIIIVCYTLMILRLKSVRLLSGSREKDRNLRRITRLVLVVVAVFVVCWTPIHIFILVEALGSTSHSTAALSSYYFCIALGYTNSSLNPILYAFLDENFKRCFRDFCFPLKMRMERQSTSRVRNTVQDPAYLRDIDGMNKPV
# Sequence of Thromboxane A2 receptor (Homo sapiens) (P21731 whole entry): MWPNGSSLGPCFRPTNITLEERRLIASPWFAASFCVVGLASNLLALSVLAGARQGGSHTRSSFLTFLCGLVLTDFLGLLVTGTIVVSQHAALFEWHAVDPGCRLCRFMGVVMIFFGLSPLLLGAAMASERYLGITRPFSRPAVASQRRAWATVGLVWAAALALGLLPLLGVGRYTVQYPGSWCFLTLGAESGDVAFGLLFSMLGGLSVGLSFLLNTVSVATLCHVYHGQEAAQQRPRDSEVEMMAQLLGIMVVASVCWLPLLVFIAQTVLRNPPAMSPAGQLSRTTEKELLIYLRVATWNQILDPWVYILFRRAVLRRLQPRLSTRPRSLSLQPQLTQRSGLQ
# Sequence of Amine oxidase [flavin-containing] A (P21397 whole entry): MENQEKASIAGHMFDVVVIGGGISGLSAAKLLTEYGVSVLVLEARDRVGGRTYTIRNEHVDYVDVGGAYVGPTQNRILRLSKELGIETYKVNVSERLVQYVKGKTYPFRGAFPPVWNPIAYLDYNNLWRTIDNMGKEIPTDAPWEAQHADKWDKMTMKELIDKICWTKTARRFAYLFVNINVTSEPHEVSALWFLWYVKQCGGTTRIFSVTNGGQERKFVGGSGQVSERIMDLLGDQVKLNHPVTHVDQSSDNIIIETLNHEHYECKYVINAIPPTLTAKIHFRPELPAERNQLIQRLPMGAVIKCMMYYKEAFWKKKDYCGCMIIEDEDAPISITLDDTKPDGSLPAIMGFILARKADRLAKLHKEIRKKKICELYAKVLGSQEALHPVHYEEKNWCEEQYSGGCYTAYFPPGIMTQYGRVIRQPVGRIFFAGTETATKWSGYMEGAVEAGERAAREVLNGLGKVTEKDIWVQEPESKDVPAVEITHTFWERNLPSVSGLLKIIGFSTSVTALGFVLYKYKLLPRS
# Sequence of Proteinase-activated receptor 2 (Homo sapiens) (P55085 whole entry): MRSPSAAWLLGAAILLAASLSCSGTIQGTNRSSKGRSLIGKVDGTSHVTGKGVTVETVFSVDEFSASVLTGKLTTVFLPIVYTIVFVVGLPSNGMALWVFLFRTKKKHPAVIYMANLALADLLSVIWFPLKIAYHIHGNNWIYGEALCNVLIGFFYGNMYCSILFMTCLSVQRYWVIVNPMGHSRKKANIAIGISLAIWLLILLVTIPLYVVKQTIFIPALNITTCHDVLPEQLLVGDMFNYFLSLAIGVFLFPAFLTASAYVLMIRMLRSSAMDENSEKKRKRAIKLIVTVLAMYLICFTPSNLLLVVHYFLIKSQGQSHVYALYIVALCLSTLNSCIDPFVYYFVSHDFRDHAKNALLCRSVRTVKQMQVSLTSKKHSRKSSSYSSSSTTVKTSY
# Sequence of Calcitonin gene-related peptide 1 (Homo sapiens) (P06881 83-119 limits assumed): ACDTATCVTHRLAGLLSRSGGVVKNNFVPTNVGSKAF
# Sequence of Histone deacetylase 3 (Homo sapiens) (O15379 whole entry): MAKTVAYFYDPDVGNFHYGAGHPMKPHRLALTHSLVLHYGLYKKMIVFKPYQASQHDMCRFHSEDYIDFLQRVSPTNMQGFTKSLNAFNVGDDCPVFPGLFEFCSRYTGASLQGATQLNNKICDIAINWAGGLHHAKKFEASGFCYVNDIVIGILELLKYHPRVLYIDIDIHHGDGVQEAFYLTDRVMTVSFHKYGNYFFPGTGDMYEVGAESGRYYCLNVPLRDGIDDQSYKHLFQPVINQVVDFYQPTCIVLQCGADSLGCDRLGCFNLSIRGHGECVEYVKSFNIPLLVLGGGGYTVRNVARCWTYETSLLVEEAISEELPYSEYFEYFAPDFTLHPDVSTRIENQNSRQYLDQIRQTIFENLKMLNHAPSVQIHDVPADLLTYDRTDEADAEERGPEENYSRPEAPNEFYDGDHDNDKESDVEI
smiles,measurement,setting,value
CCCCCCNC(=O)Oc1cccc(-c2ccc([C@H](C)C(=O)O)cc2F)c1,Activity,[1],-21.9%
same,Activity,Homo sapiens [2],5%
same,Activity,[3],13.5%
same,Activity,Homo sapiens [4],-9.5%
same,Activity,[5],11.9%
same,inhibition,Mus musculus,Active
same,Activity,[6],-1.5%
same,Activity,[7],18.8%
same,Activity,[8],-4.8%
same,Activity,Homo sapiens [9],-6.9%
same,Activity,[10],-4.4%
same,Activity,[11],-9.3%
same,Activity,Homo sapiens [12],36%
same,Activity,[13],-5.1%
same,Activity,[14],1.8%
same,Activity,[15],-0.4%
same,Activity,[16],3.8%
same,Activity,Homo sapiens [17],-2.7%
same,Activity,[18],3.2%
same,Activity,[19],-11.7%
same,Activity,[20],-6.3%
same,Activity,[21],-4.3%
same,Activity,Homo sapiens [22],17.7%
same,Activity,[23],13.7%
same,Activity,[24],26.5%
same,Activity,[25],-3.8%
same,Activity,[26],-1.4%
same,Activity,[27],-9.9%
same,Activity,[28],-3.3%
same,Activity,[29],-6.2%
same,Activity,[30],-5%
same,Activity,Homo sapiens [31],-7.7%
same,Activity,[32],-3.4%
same,Activity,[33],-11.2%
same,Activity,[34],0%
same,Activity,[35],-1.7%
same,Activity,Homo sapiens [36],7.8%
same,Activity,[37],15.5%
same,Activity,[38],0.9%
same,Activity,[39],0.8%
same,Activity,Homo sapiens [40],-1.8%
same,Activity,[41],-7.3%
same,Activity,Homo sapiens [42],17.1%
same,Activity,[43],-3%
same,Activity,Homo sapiens [44],-8.1%
